Experimental data: publication PMC10082216 (Nature Communications, 2023)
Where a name gives a salt, the structure may show the parent alone.

Experiments:
[1] = tested on: mature stage V gametocytes (NF54 strain); test: High-throughput screening: killing effect by MitoTracker staining, primary screening at 1.11 µM and dose-response analysis; assay type: cell-based, Plasmodium falciparum; conditions: for IC50: stage V gametocytes NF54, 24 h, dose-response analysis, N/A = not active in dose-response analysis, read-out: Killing IC50
Method: (§1) Screening was conducted as previously described. Briefly, mature stage V gametocytes (NF54 strain) were cultured in vitro, then exposed to the explored compounds and filtered thereafter through layers of microspheres (microsphiltration)[25],[28]. Stiffening activity was determined by comparing gametocytemia up and downstream from the microsphere layers after filtration of drug-exposed gametocytes in 384-well plates using a vacuum manifold. Gametocytemia was assessed using DNA (Sybr Green) and erythrocyte membrane (CellMask) staining. Killing effect was assessed by MitoTracker staining. We screened two small libraries, specifically the Pathogen Box from the Medicine for Malaria Venture and the Kinase Inhibitors Box from GSK (400 and 350 compounds, respectively, Fig. 1A, B), and furthermore the larger ReFrame repurposing library (12,805 compounds, Fig. 1C).
(§2) The Pathogen Box library (400 compounds, provided by MMV-Medicine for Malaria Ventures, Geneva, Switzerland), the Kinase Inhibitors Box library (350 compounds, provided by GSK-Glaxo SmithKline DDW Unit, Tres Cantos, Spain), and the ReFrame library (12,805 compounds provided by the California Institute for Biomedical Research-Calibr, La Jolla, CA, USA) were used according to the providers’ instructions. DMSO-solubilized compounds (10 mM stock concentration) were loaded in 384-well plates (Seahorse, cat. no. 201035−100). Two columns were left empty for the controls. For each compound, 5 nL were pre-spotted in a single well to reach a final concentration of 1.11 μM. The final volume for each well was 45 μl. Controls were prepared as follows: 22.5 nL of DMSO were loaded in 16 wells as negative controls (0.05% final concentration); 22.5 nL of NITD609 (provided by MMV, Geneva, Switzerland) 1 mM were loaded in 8 wells (0.5 μM final concentration), 17 nL of Calyculin A (Sigma, cat. no. C5552) […] were loaded in 6 wells (75 nM final concentration) and 225 nL of Gentian Violet (MolPort, cat. no. 002-133-551) 10 mM were loaded in the remaining 2 wells (50 μM final concentration). Plates were prepared in triplicate for the Pathogen Box and sextuplicate for the Kinase Inhibitors Box.
(§3) Plasmodium falciparum NF54 strain parasites (used for screening campaign) were cultured at 4% hematocrit in RBCs from informed blood donors (blood group A) as previously described. Parasites were taken from the -80 °C freezer, then rapidly melt for 1 minute in a 37 °C water bath. A saline solution was gently added to avoid the lysis. Firstly, NaCl dissolved at 12% in distilled water (1/5 of the volume measured in the cryovial) and then NaCl dissolved at 1.6% (9 times the cryovial’s volume). After that, fresh RBCs were added to allow parasites re-growth. Infected RBCs were kept in RPMI medium (Sigma-Aldrich, cat. no. R4130), supplemented with 10% of decomplemented human serum, hypoxanthine 50 mg/l (Sigma-Aldrich, cat. no. H9636). Biobank of Castilla y Leon and Centro de Transfusiones de Madrid as providers of human red blood cell concentrates. The production of gametocytes was induced from a 0.5% ring-stage parasitemia (day 0). Medium was changed daily to induce gametocytes differentiation, as previously described. At day 17, gametocytes were concentrated using a density gradient medium (NycoPrep 1.077, Progen cat. no. 1114550)[27]. Parasitemia was adjusted by FACS (SYBR-Green and MitoTracker double staining, 3–5% targeted). Hematocrit was adjusted to 0.5% by adding fresh RBCs and controlled by manual counting in a Neubauer chamber (Celeromics, cat. no. 717810). Finally, the gametocyte suspension was poured (45 μL/well) into the compound-containing 384-well microplate, then incubated 24 hours both for the screening campaign and the dose-response analysis. Both asexual and sexual stages were cultivated in RPMI 1640 supplemented with 25 mM HEPES, 50 mg/L hypoxanthine, 50 μg/mL gentami-cin, 10% pooled heat-inactivated human serum (A^+).

[2] = tested on: mature stage V gametocytes (NF54 strain); test: microbe, parasite or virus in culture; assay type: cell-based, Plasmodium falciparum; conditions: for outcome of primary screen (hit definition): 1.11 µM
Method: as §1, §2, §3

[3] = Hit scoring on safety in human subjects and pharmacokinetics; conditions: for Score (PK): peak plasma concentration vs IC50
Source text: Hits from the ReFrame library were further selected based on safety, preferably oral administration (high score if oral), and potential availability for widespread use.

[4] = stage V gametocytes NF54, 24 h, dose-response analysis, N/A = not active in dose-response analysis, read-out: Stiffening IC50 (retention)
[5] = Plasmodium falciparum, NF54, 24 h, read-out: Stiffening IC50 (retention)
[6] = Plasmodium falciparum, NF54, 24 h

| Molecule | IC50 [1] [nM] | IC50 [2, 4] [nM] | IC50 [2, 5] [nM] | IC50 [1, 6] [nM] | further results |
| --- | --- | --- | --- | --- | --- |
| CC(C)C[C@H](NC(=O)[C@H](Cc1ccccc1)NC(=O)c1cnccn1)B(O)O [Bortezomib] | – | – | – | – | IC50 ([1]; Plasmodium falciparum): 2060 nM |
| CC(O)C(=O)O.Cc1[nH]c2ccccc2c1CCNCc1ccc(/C=C/C(=O)NO)cc1 [Panobinostat lactate] | 300 | 220 | – | – | Score (safety) [3]: 0; Score (PK) [3]: 0 |
| CC[n+]1c(/C=C/c2ccc(N3CCCC3)cc2)cccc1/C=C/c1ccc(N2CCCC2)cc1.[I-] [Stilbazium iodide] | 8740 | 1570 | – | – | Score (safety) [3]: 0; Score (PK) [3]: 0 |
| COC(=O)[C@@]12OC[C@]34[C@H]([C@@H](O)[C@@H]1O)[C@@]1(C)CC(=O)C(O)=C(C)[C@@H]1C[C@H]3OC(=O)[C@H](OC(=O)/C=C(\C)C(C)C)[C@@H]24 [Bruceantin] | – | – | 20 | – | IC50 ([1]; Plasmodium falciparum): 160 nM |
| CN(C)c1ccc2c(c1)Sc1cc(N(C)C)ccc1N2 [Leuco methylthioninium salt] | 23200 | – | – | – | Score (safety) [3]: 0; Score (PK) [3]: 0 |
| COc1ccc(-c2ccc3ncc4c(c3c2)n(-c2ccc(N3CCNCC3)c(C(F)(F)F)c2)c(=O)n4C)cn1 [NVP-BGT226] | – | – | 1600 | 13 | Score (safety) [3]: 0; Score (PK) [3]: 2 (Peak plasma concentration between 1/3 IC50 and IC50 (Score = 2)) |
| COc1cc(N2CCN(C(C)C)CC2)ccc1Nc1nc(Nc2ccc(F)cc2C(N)=O)c2cc[nH]c2n1 [GSK1220512A] | – | – | 2320 | 17000 | – |
| Cc1cc(Nc2ncc(Cl)c(Nc3ccccc3S(=O)(=O)C(C)C)n2)c(OC(C)C)cc1C1CCNCC1 [Ceritinib] | – | – | 10500 | 10000 | Score (safety) [3]: 0; Score (PK) [3]: 0 |
| CNCc1ccc(-c2cc(-c3nc(-c4ccc(S(=O)(=O)C(C)C)cc4)cnc3N)on2)cc1 [VE-822] | – | – | 9500 | 710 | – |
| CC[C@H]1/C=C/C=C/C[C@@H](C)[C@H](O)[C@@](C)(O)C(=O)[C@@H](C)[C@H](O)[C@@H](C)C(=O)[C@@H](C)[C@H](O)[C@@H](C)/C=C/C(=O)O[C@@H]2[C@H](C)[C@H](CC1)O[C@@]1(O[C@@H](C[C@@H](C)O)[C@@H](C)CC1=O)[C@H]2C [Oligomycin B] | 5800 | 1550 | – | – | – |
| CN(C)c1ccc2nc3ccc(=[N+](C)C)cc-3sc2c1 [Methylthioninium chloride] | – | – | – | 4850 | IC50 ([2]; Plasmodium falciparum, NF54, 24 h, read-out: Stiffening IC50 (retention), stage V gametocytes NF54, 24 h, dose-response analysis, N/A = not active in dose-response analysis): 2800 nM |
| C[CH2][Hg][S]c1ccccc1C(=O)[O-].[Na+] [Thimerosal] | 1500 | 930 | – | – | – |
| Eseroline | 1560 | 2300 | – | – | – |
| CC[C@@H](C(=O)O)[C@@H]1O[C@@H]([C@@H](C)[C@H](O)[C@H](C)C(=O)[C@H](CC)[C@H]2O[C@]3(C=C[C@@H](O)[C@]4(CC[C@@](C)([C@H]5CC[C@](O)(CC)[C@H](C)O5)O4)O3)[C@H](C)C[C@@H]2C)[C@@H](C)C[C@@H]1C [Narasin] | – | – | 43000 | – | IC50 ([1]; Plasmodium falciparum): 46000 nM |
| Oligomycin A | – | – | – | – | IC50 ([2]; read-out: Stiffening IC50 (retention), stage V gametocytes NF54, 24 h, dose-response analysis, N/A = not active in dose-response analysis): 500 nM |
| CCCN1CCC(c2ccc(Nc3nc(Nc4cc(F)ccc4C(N)=O)c4cc[nH]c4n3)c(OC)c2)CC1 [GSK1326255A] | – | – | 480 | 8400 | – |
| CCCN1CCCC(c2ccc(Nc3nc(Nc4cc(F)ccc4C(N)=O)c4cc[nH]c4n3)c(OC)c2)C1 (stereo not shown) [GSK1173862A] | – | – | 345 | 2400 | – |
| C[C@]12CCC(=NOCCN)C[C@@H]1C(=O)C[C@@H]1[C@@H]2CC[C@]2(C)C(=O)CC[C@@H]12 [Istaroxime] | – | – | 170 | – | – |

| Molecule | IC50 [1] [nM] | IC50 [2, 4] [nM] | IC50 [2, 5] [nM] | IC50 [1, 6] [nM] | further results |
| --- | --- | --- | --- | --- | --- |
| Bismuth ethanedithiol | 1300 | 1500 | – | – | – |
| Gramicidin | 8 | 70 | – | – | killing IC50 in words ([1]; gametocytes): low nanomolar range |
| CC(C)(C)NCc1ccc(Nc2ccnc3cc(Cl)ccc23)cc1O [N-tert-butylisoquine] | – | – | 9450 | 9550 | Score (safety) [3]: 0; Score (PK) [3]: 0 |
| C/C=C1\NC(=O)[C@H]2CSSCC/C=C/[C@H](CC(=O)N[C@H](C(C)C)C(=O)N2)OC(=O)[C@H](C(C)C)NC1=O [Romidepsin] | – | – | 5000 | – | IC50 ([1]; Plasmodium falciparum): 20000 nM |
| Cn1cc(CNCC2CCN(c3ncc(C(=O)NO)cn3)CC2)c2ccccc21 [Quisinostat] | – | – | 3500 | 5200 | Score (safety) [3]: 0; Score (PK) [3]: 0 |
| O=C([O-])[C@H]([O-])[C@@H]([O-])C(=O)[O-].O=C([O-])[C@H]([O-])[C@@H]([O-])C(=O)[O-].[K+].[K+].[Sb+3].[Sb+3] [Potassium antimonyl tartrate] | 3630 | 10700 | – | – | – |
| CCCCCCCCN=c1ccn(CCCCCCCCCCn2ccc(=NCCCCCCCC)cc2)cc1 [Octenidine] | – | – | 1820 | 1250 | – |
| CCCCN(CCCC)c1ccc2nc3ccc(=[N+](CCCC)CCCC)cc-3sc2c1 [PPA904] | 2420 | 5050 | – | – | – |
| COc1ccc(NC(=O)N2CCCCN3[C@H](CN(C)C)[C@H](c4ccc(C#Cc5ccccc5)cc4)[C@@H]3C2)cc1 [BRD-7929] | 2200 | 3800 | – | – | Score (safety) [3]: 0; Score (PK) [3]: 0 |
| CN1CC(=O)N2[C@H](c3ccc4c(c3)OCO4)c3[nH]c4ccccc4c3C[C@@H]2C1=O [tadalafil] | – | – | – | – | outcome of primary screen (hit definition) [2]: not captured by the primary screen |
| CC(C)NC(=N)NC(=N)Nc1ccc(Cl)c(Cl)c1.Cl [Chlorproguanil hydrochloride] | – | 10400 | – | – | Score (safety) [3]: 0; Score (PK) [3]: 1 (Peak plasma concentration lower than 1/3 IC50 (Score = 1)) |
| COc1cccc(CC(=O)N2CCC(n3c(C)nc4ccc(F)cc43)CC2)c1 [MMV020081] | 29300 | 1470 | – | – | – |
| COCCn1c2c([n+](Cc3cnccn3)c1C)C(=O)c1ccccc1C2=O [Sepantronium bromide] | – | – | 1890 | 1350 | – |
| CCCC1(CCC)CCC2(CCN(CCCN(CC)CC)C2)CC1.O=C(O)/C=C\C(=O)O.O=C(O)/C=C\C(=O)O [Atiprimod dimaleate] | 6670 | – | – | – | Score (safety) [3]: 0; Score (PK) [3]: 0 |
| [O-][n+]1ccccc1SSc1cccc[n+]1[O-] [Bispyrithione] | – | – | 2350 | – | IC50 ([1]; Plasmodium falciparum): 920 nM |
| Cl[TeH]1(Cl)(Cl)OCCO1 [Ammonium trichlorotellurate] | – | – | 2200 | 13700 | – |
| CCCc1nn(C)c2c(=O)[nH]c(-c3cc(S(=O)(=O)N4CCN(C)CC4)ccc3OCC)nc12 [sildenafil] | – | – | – | – | outcome of primary screen (hit definition) [2]: not captured by the primary screen |
| CCCCCCCCCCCCCC[n+]1ccc(C)cc1 [Myristyl-gamma picolinium chloride] | 4150 | 7200 | – | – | – |
